“Also recorded” adds a separate entry of the source.

Assay type in all cases: in vivo, mouse
One assay deals with C57BL/6J (B6) mice. Nature of the assay: Soluble murine TNFα intravitreal injection model of RGC death. The conditions noted are these: NAM 550 mg/kg/day, 12-week post-TNFα administration. Here is the method: To induce delayed retinal ganglion cell degeneration, soluble murine TNFα (1 ng/μL) was intravitrally injected as previously described (Nakazawa et al., J Neurosci 26, 12633-12641, 2006). […] Mice we sacrificed at 12-week and RGC counts performed.

The subject of the next assay is D2 retinas. Kind of assay: Metabolic phenotyping of retina: total NAD, NAD(t) (NAD+/NADH). As to the method: We performed additional metabolic profiling of neural retinas from 4-, 9-, and 12-months old D2 and D2-Gpnmb^+ eyes. Metabolic profiling was performed using targeted assays following the manufacturers recommendations. The following metabolites were profiled: NAD+/NADH (i.e. total NAD, NAD(t)), GSH/GSSG (i.e. total glutathione, glutathione(t)), and pyruvate.
For GSH/GSSO and NAD^+/NADH quantification retinas were dissociated (as above) and compounds measured following the manufacturer's instructions (GSH/GSSG, Cayman Chemical; NAD^+/NADH, Biovision). Results were calculated according to the standard curve generated by using standards from the kits. Final metabolite concentrations for each samples were normalized to total protein concentration measured by Bradford assay.

Assay [1] concerns retinal ganglion cells (RGCs). Nature of the assay: RNA-sequencing of FAC sorted RGCs, differential gene expression. The settings on record: for RGC gene expression changes (RNA-seq): D2 mice, NAM 550 mg/kg/day in drinking water from 6-month, 9-month RGCs. As to the method: Prior to cell collection, all surfaces and volumes were cleaned with 70% ethanol and RNaseZap (ThermoFisher Scientific) solution followed by dH2O. Mice were euthanized, eyes enucleated and placed immediately into ice-cold HBSS. Retinas were dissected from the eyes (4- or 9-month of age, no axon degeneration confirmed by PPD staining, data not shown) in HBSS on ice and placed directly into 100 μL, of a custom HBSS (Gibco), dispase (5 U/mL) (Stemcell Technologies), DNase 1 (2000 U/mL) (Worthington Biochemical) and SUPERase (1 U/μL) (ThermoFisher Scientific) solution. All retinas were from eyes that had no glaucomatous axon degeneration by PPD staining and analysis (see optic nerve assessment below). Retinas were incubated for 20 mins at 37° C. and shaken at 350 RPM in an Eppendorf Thermomixer R followed by gentle trituration using a 200 μL pipette. Samples were blocked in 2% BSA, SUPERase (1 U/μL) in HBSS, and stained with conjugated antibodies against Cd11b, Cd11c, Cd34, Cd45.2, GFAP, Thy1.2 as well as DAPI. This cocktail allowed other retina cell types to be accurately removed during FACS.
FACS was performed on a FACSAria (BD Biosciences). Thy1.2^+ (and negative for all other markers) RGCs were sorted into 300 μL buffer RLT+1% β-ME, vortexed and frozen at −80° C. until further processing.
[…] RGC samples were defrosted on ice and homogenized by syringe in RLT Buffer (total volume 300 μL). Total RNA was isolated using RNeasy micro kits according to manufacturer's protocols (Qiagen) including the optional DNase treatment step, and quality was assessed using an Agilent 2100 Bioanalyzer. The concentration was determined using Ribogreen Assay (Invitrogen). […]
Library size produced was analyzed using qPCR using the Library Quantitation kit/Illumina GA/ABI Prism (Kapa Biosystems). Libraries were barcoded, pooled, and sequenced 6 samples per lane on a HiSeq 2500 sequencer (illumina) giving a depth of 30-35 million reads per sample.
Samples were subjected to quality control analysis by a custom quality control python script. Reads with 70% of their bases having a base quality score ≥30 were retained for further analysis. Read alignment was performed using TopHat v 2.0.7 (Kim et al., Genome Biol 14, R36, 2013) and expression estimation was performed using HTSeq (Anders et al., Bioinformatics 31, 166-169, 2015) with supplied annotations and default parameters against the DBA/2J mouse genome (build-mm10). […]
Differential gene expression analysis between groups was performed using edgeR v 3.10.5 (Robinson et al., Bioinformatics 26, 139-140, 2010) following, batch correction using RUVSeq, the removal of outlier samples and lowly expressed genes by removing genes with less than five reads in more than two samples. […]

Assay [2] has as its system retinal ganglion cells (RGCs). Kind of assay: RGC soma loss (RBPMS staining) in D2 glaucoma. The conditions noted are these: D2 mice; NAM 550 mg/kg/day or pyruvate 500 mg/kg/day. As to the method: For immunofluorescence staining, mice were euthanized by cervical dislocation, their eyes enucleated and placed in 4% PFA ON. Retinas were dissected and flat-mounted onto slides, permeabilized with 0.1% Triton-X for 15 mins, blocked with 2% BSA in PBS and stained ON at RT in primary antibody (see below for list of antibodies).
After primary antibody incubation, retinas were washed 5 times in PBS, stained for 4 hrs at RT with secondary antibody. Slides were then washed a further 5 times with PBS, stained with DAPI for 15 mins, mounted with fluoromount, coverslipped and sealed with nail-polish.
For retinal sections, eyes were cryoprotected in 30% sucrose ON, frozen in OCT and cryosectioned at 18 μm. Slides were warmed to room temperature and the procedure above was followed. Retinas were imaged on a Zeiss AxioObserver for low resolution counts. Retinal sections were imaged on a Leica SP8 far higher resolution images.

[3] abbreviates: RGCs, q<0.05, NAM 550 mg/kg/day.

For the compound `NC(=O)c1cccnc1` [NAM, nicotinamide], in the assay on C57BL/6J (B6) mice, the “loss of PERG amplitude in TNFα injected eyes” value was “protected against; also recorded: prevents” and the “soma loss / cell loss in TNFα injected eyes” value is listed as “protected against; also recorded: prevents”. For the same compound, the “NAD(t) levels in retina” value in the assay with D2 retinas (D2 Wld^S mice treated with NAM 550 mg/kg/day) was “synergistic; also recorded: additional benefit”. Also, the “NAD(t) levels in retina” value in the assay with D2 retinas (D2 mice, NAM 550 mg/kg/day in drinking water, through to 12-month) is recorded as “prevented the decline of NAD levels; also recorded: restored; also recorded: increased”. Moreover, the “RGC gene expression changes (RNA-seq)” value in assay [1] was “prevented even the earliest molecular signs of glaucoma in the majority of treated eyes; also recorded: prevented the vast majority of age-related gene expression changes; also recorded: returned to normal; also recorded: molecularly similar to controls; also recorded: molecularly similar to both young and age-matched no glaucoma control RCGs; also recorded: prevents transcriptome imbalances and OXPHOS imbalances; also recorded: prevents age- and disease-related gene expression changes”. The “RGC gene expression changes (RNA-seq)” value in assay [1] (listed as nicotinamide) is “more closely molecularly matched to young control mice”. Also, in assay [1] (setting [3]), the “number of DE genes, 4-month D2-Gpnmb+ vs. NAM” value amounted to 83 and the “number of DE genes, 9-month D2-Gpnmb+ vs. NAM” value was determined as 4437. Also, the “RGC soma loss (RBPMS)” value in assay [2] is “prevented; also recorded: protects from RGC soma loss; also recorded: prevent RGC soma loss”.

Source of the values: US12336986B2, “Treatment and prevention of ocular neurodegenerative disorder” (The Jackson Laboratory, priority 2015, dated 2025).
